Reference: US20230174521A1, “NOVEL DIACYLGLYCERIDE O-ACYLTRANSFERASE 2 INHIBITORS” (Merck Sharp & Dohme LLC, priority 2020, published 2023)

Biological target: T1, human DGAT2 (hDGAT2) (Homo sapiens, UniProt Q96PD7)
T1 construct: made in house; host or cells: Sf-9 insect cells (baculovirus infection); membrane fraction
T1 sequence (Q96PD7 1-388): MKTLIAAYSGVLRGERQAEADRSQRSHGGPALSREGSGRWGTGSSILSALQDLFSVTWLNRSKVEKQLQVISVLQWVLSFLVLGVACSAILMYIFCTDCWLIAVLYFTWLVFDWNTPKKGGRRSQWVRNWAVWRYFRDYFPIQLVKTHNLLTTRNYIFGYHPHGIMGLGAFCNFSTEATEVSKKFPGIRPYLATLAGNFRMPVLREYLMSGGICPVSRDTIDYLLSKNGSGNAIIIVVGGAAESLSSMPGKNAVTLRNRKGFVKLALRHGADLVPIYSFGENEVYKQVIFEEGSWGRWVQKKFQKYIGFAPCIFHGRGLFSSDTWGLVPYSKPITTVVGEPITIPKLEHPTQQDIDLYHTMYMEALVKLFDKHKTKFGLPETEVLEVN
Experiment: DGAT2 enzymatic activity assay (LC/MS/MS detection of 13C18-triolein, Sf-9 membrane prep)
Assay type: biochemical
Conditions: hDGAT2 Sf-9 membrane, 25 μM diolein, 5 μM 13C oleoyl-CoA, rt
Description: Sf-9 insect cells were maintained in Grace's insect cell culture medium with 10% heated-inactivated fetal bovine serum, 1% Pluronic F-68 and 0.14 μg/ml Kanamycine sulfate at 27° C. in a shaker incubator. After infection with untagged baculovirus expressing human DGAT2 (hDGAT2) at multiplicity of infection (MOI) 3 for 48 hours, cells were harvested. Cell pellets were suspended in buffer containing 10 mM Tris-HCl pH 7.5, 1 mM EDTA, 250 mM sucrose and Complete Protease Inhibitor Cocktail (Sigma Aldrich), and sonicated on ice. Cell debris were removed by centrifugation at 2000×g for 15 minutes. Membrane fractions were isolated by ultracentrifugation (100,000×g), resuspended in the same buffer, and frozen (−80° C.) for later use. The protein concentration was determined with the Pierce™ BCA Protein Assay Kit (Thermo Fisher Scientific). Expression of protein levels was analyzed by immunoblotting with rabbit anti-DGAT2 antibody (Abcam, ab102831) and donkey anti-rabbit IgG H&L Alexa Fluor® 647 (Abcam, ab150075) followed by detection using Typhoon FLA9000 (GE Healthcare).
LC/MS/MS analyses were performed using Thermal Fisher's LX4-TSQ Vantage system. This system consists of an Agilent binary high-performance liquid chromatography (HPLC) pumps and a TSQ Vantage triple quadrupole MS/MS instrument. For each sample, 2 μL samples from the top organic layer of in-plate liquid-liquid extraction were injected onto a Thermo Betabasic C4 column (2.1 mm×20 mm, 5 μm particle size). The samples were then eluted using the following conditions; mobile phase: Isopropanol: acetonitrile/10 mM ammonium formate=50/35/15 (v/v/v), flow rate: 0.8 mL/min, temperature: 25° C. Data was acquired in positive mode using a heated electrospray ionization (HESI) interface. The operational parameters for the TSQ Vantage MS/MS instrument were a spray voltage of 3000 V, capillary temperature of 280° C., vaporizer temperature 400° C., sheath gas 45 arbitrary unit, Aux gas 10 arbitrary units, S-lens 165 and collision gas 1.0 mTorr. […] (SRM) chromatograms of ^13C18-triolein (Q1: 920.8>Q3:621.3) and internal standard ^13C21-triolein (Q1: 923.8>Q3:617.3) were collected for 33 sec. The peak area was integrated by Xcalibur Quan software. The ratio between the ^13C18triolein generated in the reaction and spiked in internal standard ^13C21-triolein was used to generate percentage inhibition and IC50 values. Compound percentage inhibition was calculated by the following formula: Inhibition %=1−[(compound response−low control)/(high control−low control)]×100%. Potent compounds were titrated and IC50 were calculated by 4 parameter sigmoidal curve fitting formula.
DGAT2 activity was determined by measuring the amount of enzymatic product ^13C18-triolein (^13C-1,2,3-Tri(cis-9-octadecenoyl)glycerol) using the membrane prep mentioned above. The assay was carried out in ABgene 384-well assay plates in a final volume of 25 μL at rt. The assay mixture contained the following: assay buffer (100 mM Tris.Cl, pH 7.0, 20 mM MgCl2, 5% ethanol), 25 μM of diolein, 5 μM of ^13C oleoyl-CoA and 8 ng/μL of DGAT2 membrane.

Row | IC50 [nM] | Compound
1 | 27 | CC(C)(O)c1nn(-c2cccc(OC(F)F)c2)c2ccc(C(=O)N[C@@]3(C)CCS(=O)(=O)C3)cc12 [Example 33, (S)-1-(3-(difluoromethoxy)phenyl)-3-(2-hydroxypropan-2-yl)-N-(3-methyl-1,1-dioxidotetrahydrothiophen-3-yl)-1H-indazole-5-carboxamide]
2 | 93 | CC(C)Oc1nn(-c2cc(OC(F)F)ccc2F)c2ncc(C(=O)NC3(C)CS(=O)(=O)C3)cc12 [Example 55, 1-(5-(difluoromethoxy)-2-fluorophenyl)-3-isopropoxy-N-(3-methyl-1,1-dioxidothietan-3-yl)-1H-pyrazolo[3,4-b]pyridine-5-carboxamide]
3 | 16 | CC(C)c1nn(-c2cccc(OC(F)F)c2)c2ncc(C(=O)N[C@@]3(C)CCS(=O)(=O)C3)cc12 [Example 11, (S)-1-(3-(difluoromethoxy)phenyl)-3-isopropyl-N-(3-methyl-1,1-dioxidotetrahydrothlophen-3-yl)-1H-pyrazolo[3,4-b]pyridine-5-carboxamide]
4 | 77 | CC(C)c1nn(-c2cccc(OC(F)F)c2)c2cnc(C(=O)NC3(C)CS(=O)(=O)C3)cc12 [Example 13]
5 | 7.1 | CC1(NC(=O)c2cnc3c(c2)c(C2CCOCC2)nn3-c2cccc(OC(F)F)c2)CS(=O)(=O)C1 [Example 21]
6 | 56 | CC(C)c1nn(-c2cncc(OC(F)F)c2)c2ccc(C(=O)NC3(C)CS(=O)(=O)C3)cc12 [Example 18]
7 | 38 | CC(O)c1nn(-c2cccc(OC(F)F)c2)c2ncc(C(=O)NC3(C)CS(=O)(=O)C3)cc12 (single isomer, unassigned) [Example 38a, 1-(3-(difluoromethoxy)phenyl)-3-(l-hydroxyethyl)-N-(3-methyl-1,1-dioxidothietan-3-yl)-1H-pyrazolo[3,4-b]pyridine-5-carboxamide]
8 | 14 | CC(C)c1nn(-c2cccc(C3CC3)c2)c2ncc(C(=O)NC3(C)CS(=O)(=O)C3)cc12 [Example 16, l-(3-cyclopropylphenyl)-3-isopropyl-N-(3-methyl-1,1-dioxidothietan-3-yl)-1H-pyrazolo[3,4-b]pyridine-5-carboxamide]

The next lines start with the molecule.

Row | Compound | IC50 [nM]
9 | CC1(NC(=O)c2ccc3c(c2)c(C(O)C(F)(F)F)nn3-c2cccc(OC(F)F)c2)CS(=O)(=O)C1 (single isomer, unassigned) [Example 30a, 1-[3-(difluoromethoxy)phenyl]-N-(3-methyl-1,1-dioxo-thietan-3-yl)-3-(2,2,2-trifluoro-1-hydroxy-ethyl)indazole-5-carboxamide] | 84
10 | CC1(NC(=O)c2cnc3c(c2)c(C(C)(C)O)nn3-c2cccc(OC(F)(F)F)c2)CS(=O)(=O)C1 [Example 42, 3-(2-hydroxypropan-2-yl)-N-(3-methyl-1,1-dioxidothietan-3-yl)-1-(3-(trifluoromethoxy)phenyl)-1H-pyrazolo[3,4-b]pyridine-5-carboxamide] | 107
11 | C[C@]1(NC(=O)c2ccc3c(c2)c(N2CCOCC2)nn3-c2cccc(OC(F)F)c2)CCS(=O)(=O)C1 [Example 48, (S)-1-[3-(difluoromethoxy)phenyl]-N-(3-methyl-1,1-dioxo-thiolan-3-yl)-3-morpholino-indazole-5-carboxamide] | 375
12 | Cc1cc(C(=O)NC2(C)CS(=O)(=O)C2)cc2c(C(C)(C)O)nn(-c3cccc(OC(F)F)c3)c12 [Example 36, 1-(3-(difluoromethoxy)phenyl)-3-(2-hydroxypropan-2-yl)-7-methyl-N-(3-methyl-1,1-dioxidothietan-3-yl)-1H-indazole-5-carboxamide] | 59
13 | CC(C)(O)Cc1nn(-c2cc(OC(F)F)ccc2F)c2ncc(C(=O)NC3(C)CS(=O)(=O)C3)cc12 [Example 24, l-(5-(difluoromethoxy)-2-fluorophenyl)-3-(2-hydroxy-2-methylpropyl)-N-(3-methyl-1,1-dioxidothietan-3-yl)-1H-pyrazolo[3,4-b]pyridine-5-carboxamide] | 6.4
14 | CC1(NC(=O)c2ccc3c(c2)c(C(O)C(F)(F)F)nn3-c2cccc(OC(F)F)c2)CS(=O)(=O)C1 (racemic) [Example 30, 1-(3-(difluoromethoxy)phenyl)-N-(3-methyl-1,1-dioxidothietan-3-yl)-3-(2,2,2-trifluoro-1-hydroxyethyl)-1H-indazole-5-carboxamide] | 47
15 | COc1ccc(-n2nc(NCCc3ccccc3)c3cc(C(=O)NCCCN(C)C)ccc32)cc1 [Example 52, N-(3-(dimethylamino)propyl)-1-(4-methoxyphenyl)-3-(phenethylamino)-1H-indazole-5-carboxamide] | 4320
16 | CCC(O)c1nn(-c2cccc(OC(F)F)c2)c2ccc(C(=O)NC3(C)CS(=O)(=O)C3)cc12 (single isomer, unassigned) [Example 28b, 1-(3-(difluoromethoxy)phenyl)-3-(1-hydroxypropyl)-N-(3-methyl-1,1-dioxidothietan-3-yl)-1H-indazole-5-carboxamide] | 70
17 | CC1(NC(=O)c2cnc3c(c2)c(C(C)(C)O)nn3-c2cc(OCC(F)F)ncc2F)CS(=O)(=O)C1 [Example 45, 1-(2-(2,2-difluoroethoxy)-5-fluoropyridin-4-yl)-3-(2-hydroxypropan-2-yl)-N-(3-methyl-1,1-dioxidothietan-3-yl)-1H-pyrazolo[3,4-b]pyridine-5-carboxamide] | 13
18 | CC1(NC(=O)c2ccc3c(c2)c(O)nn3-c2cccc(OC(F)F)c2)CS(=O)(=O)C1 [Example 56] | > 10000
19 | C[C@]1(NC(=O)c2ccc3c(c2)c(-c2ccc(F)cc2)cn3-c2cccc(OC(F)F)c2)CCS(=O)(=O)C1 [Example 6, (S)-1-(3-(difluoromethoxy)phenyl)-3-(4-fluorophenyl)-N-(3 - methyl-1,1-dioxidotetrahydrothiophen-3-yl)-1H-indole-5-carboxamide] | 0.5
20 | CC(C)c1nn(-c2cc(OCC(F)F)ncc2F)c2ncc(C(=O)NC3(C)CS(=O)(=O)C3)cc12 [Example 26, 1-(2-(2,2-difluoroethoxy)-5-fluoropyridin-4-yl)-3-isopropyl-N-(3-methyl-1,1-dioxidothietan-3-yl)-1H-pyrazolo[3,4-b]pyridine-5-carboxamide] | 2.2
21 | Cn1ccc(-c2nn(-c3cccc(OC(F)F)c3)c3ccc(C(=O)NC4(C)CS(=O)(=O)C4)cc23)n1 [Example 2, 1-(3-(difluoromethoxy)phenyl)-N-(3-methyl-1,1-dioxo-thietan-3-yl)-3-(l-methylpyrazol-3-yl)indazole-5-carboxamide] | 18
22 | CC1(NC(=O)c2cc(F)c3c(c2)c(C(C)(C)O)nn3-c2cccc(OC(F)F)c2)CS(=O)(=O)C1 [Example 37, l-(3-(difluoromethoxy)phenyl)-7-fluoro-3-(2-hydroxypropan-2-yl)-N-(3-methyl-1,1-dioxidothietan-3-yl)-1H-indazole-5-carboxamide] | 15
23 | CC1(NC(=O)c2cnc3c(c2)c(C(C)(C)O)nn3-c2cncc(OC(F)F)c2)CS(=O)(=O)C1 [Example 47, 1-(5-(difluoromethoxy)pyridin-3-yl)-3-(2-hydroxypropan-2-yl)-N-(3-methyl-1,1-dioxidothietan-3-yl)-1H-pyrazolo[3,4-b]pyridine-5-carboxamide] | 91
24 | Cn1nccc1-c1nn(-c2cccc(OC(F)F)c2)c2ccc(C(=O)NC3(C)CS(=O)(=O)C3)cc12 [Example 1, 1-[3-(difluoromethoxy)phenyl]-N-(3-methyl-1,1-dioxo-thietan-3-yl)-3-(2-methylpyrazol-3-yl)indazole-5-carboxamide] | 46
